PMC6608569 (Bioorganic & medicinal chemistry letters, 2019)

Assays:
[1] = target: GRP78 (Homo sapiens, UniProt P11021); assay: Fluorescence polarization FITC-NRLLLTG peptide; details: peptide binding assay, 8-point dose responses
[2] = test system: HCT116 cells; assay: Annexin V / propidium iodide flow cytometry; format: cell-based
[3] = test system: HCT116 cells; assay: Unfolded protein response markers by immunoblot; format: cell-based; details: 16 hours, three concentrations

Sequence of GRP78 (P11021 26-636): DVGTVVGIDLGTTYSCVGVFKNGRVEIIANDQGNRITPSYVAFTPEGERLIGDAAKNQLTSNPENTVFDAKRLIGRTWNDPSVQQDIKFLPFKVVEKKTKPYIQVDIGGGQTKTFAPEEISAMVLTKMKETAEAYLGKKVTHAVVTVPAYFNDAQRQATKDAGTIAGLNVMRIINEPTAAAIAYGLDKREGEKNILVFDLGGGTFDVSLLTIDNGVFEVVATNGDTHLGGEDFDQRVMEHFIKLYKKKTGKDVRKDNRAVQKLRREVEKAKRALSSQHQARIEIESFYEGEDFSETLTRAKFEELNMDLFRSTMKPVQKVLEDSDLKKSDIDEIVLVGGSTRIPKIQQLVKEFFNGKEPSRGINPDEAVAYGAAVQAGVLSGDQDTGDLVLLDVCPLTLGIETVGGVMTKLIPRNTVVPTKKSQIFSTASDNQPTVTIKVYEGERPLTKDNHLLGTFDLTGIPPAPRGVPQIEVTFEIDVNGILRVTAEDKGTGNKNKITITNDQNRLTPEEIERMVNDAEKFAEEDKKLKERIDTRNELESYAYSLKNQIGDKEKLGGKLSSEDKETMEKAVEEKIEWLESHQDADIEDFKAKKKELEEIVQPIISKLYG

Row | SMILES | GRP78 inhibition, SAR result in words [1] | further results
1 | Oc1c(Cl)cc(Cl)c(Cl)c1Sc1c(O)c(Cl)cc(Cl)c1Cl [compound 2] | tolerated | 
2 | Oc1ccc(Cl)cc1Cc1cc(Cl)ccc1O [compound 5] | inactive | 
3 | Oc1ccccc1Cc1ccccc1O [compound 7] | inactive | 
4 | CCc1cc(Cc2cc(CC)cc(C(C)(C)C)c2O)c(O)c(C(C)(C)C)c1 [compound 8] | not tolerated | 
5 | Oc1c(Cl)cc(Cl)c(Cl)c1Cc1c(O)c(Cl)cc(Cl)c1Cl [hexachlorophene] |  | percentage of apoptotic cells (annexin V staining only) versus Taxol control ([2]; 10 μM, 24 hours): same percentage of apoptotic cells; percentage of apoptotic cells versus Taxol control ([2]; 25 μM, 24 hours): larger percentage of apoptotic cells than the Taxol control; mechanism of cell death ([2]; 5, 10, or 25 μM, dose and time course): apoptotic cell death in a dose (Figure 6A) and time (Figure 6B) dependent manner; time of peak early apoptosis (annexin V positive and PI negative) ([2]; time course): about 24 hours; time of peak late stage apoptosis (Annexin V and PI positive) ([2]; time course): 36 h; induction of UPR markers (XBP1s, ATF4, CHOP) [3]: dose dependent induction
6 | O=C(Nc1cc(Cl)cc(Cl)c1O)c1c(O)c(Cl)cc(Cl)c1Cl [compound 9] | not tolerated | 
7 | Oc1cc(Cl)ccc1Oc1ccc(Cl)cc1Cl [compound 6] | not tolerated | 
8 | Cc1cc(Cc2cc(C)cc(C(C)(C)C)c2O)c(O)c(C(C)(C)C)c1 [compound 10] | not tolerated | 
